Assay results as given in ChEMBL document CHEMBL5537112, “Emerging opportunities to treat idiopathic pulmonary fibrosis: Design, discovery, and optimizations of small-molecule drugs targeting fibrogenic pathways” (Eur J Med Chem, 2023).
pEC50, pIC50, pKi: −log10 of the molar value.

Tests used:
[1] = AUC in Sprague-Dawley rat at 10 mg/kg, po; format: ADME, organism-based; settings: in vivo
[2] = target: Vascular endothelial growth factor receptor 2 (Homo sapiens, UniProt P35968); assay: Inhibition of VEGFR2 (unknown origin)
[3] = target: T1, Platelet-derived growth factor receptor beta (Homo sapiens, UniProt P09619); assay: Inhibition of glutathione S-transferase fused PDGFbetaR (unknown origin) in 3T3 cells; format: cell-based
[4] = target: T1, Platelet-derived growth factor receptor beta; assay: Inhibition of PDGFRbeta (unknown origin) by enzymatic assay
[5] = Metabolic stability in Sprague-Dawley rat assessed as half life; format: ADME
[6] = Half life in rat; format: ADME; settings: in vivo
[7] = target: Sphingosine 1-phosphate receptor 2 (Homo sapiens, UniProt O95136); assay: Agonist activity at S1P2 (unknown origin) expressed in CHO cells assessed as Ca2+ activation; format: functional, cell-based
[8] = Clearance in rat at 5 mg/kg, iv; format: ADME, organism-based; settings: in vivo
[9] = Oral bioavailability in rat; format: ADME, organism-based; settings: in vivo
[10] = Clearance in rat at 1 mg/kg, iv; format: ADME, organism-based; settings: in vivo
[11] = Oral bioavailability in rat at 5 mg/kg; format: ADME, organism-based; settings: in vivo
in vivo = settings: rat, po, 5 mg/kg
Description: Half life in rat at 5 mg/kg, po

[12] = target: T2, Type-1 angiotensin II receptor (Homo sapiens, UniProt P30556); assay: Binding affinity to AT1R (unknown origin) assessed as inhibition constant
T2 sequence (P30556 whole entry): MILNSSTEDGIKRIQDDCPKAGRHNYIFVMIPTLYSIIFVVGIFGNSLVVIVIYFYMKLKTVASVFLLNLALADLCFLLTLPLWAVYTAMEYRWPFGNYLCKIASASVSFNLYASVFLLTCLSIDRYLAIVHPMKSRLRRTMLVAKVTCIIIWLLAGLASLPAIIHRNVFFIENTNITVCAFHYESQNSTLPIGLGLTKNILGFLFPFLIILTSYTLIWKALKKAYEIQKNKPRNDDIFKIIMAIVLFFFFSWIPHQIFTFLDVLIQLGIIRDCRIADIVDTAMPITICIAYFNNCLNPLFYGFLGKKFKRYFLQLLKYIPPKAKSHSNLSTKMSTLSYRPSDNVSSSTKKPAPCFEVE

[13] = target: Phosphatidylinositol 4,5-bisphosphate 3-kinase catalytic subunit alpha isoform (Homo sapiens, UniProt P42336); assay: Inhibition of PI3Kalpha (unknown origin) by kinase profiling assay
[14] = target: T1, Platelet-derived growth factor receptor beta; assay: Inhibition of PDGFRbeta (unknown origin) by DiscoverX KINOMEscan assay
[15] = target: Lysophosphatidic acid receptor 1 (Homo sapiens, UniProt Q92633); assay: Antagonist activity at human LPA1 receptor expressed in CHO cells assessed as inhibition of LPA-induced calcium mobilization pretreated for 15 mins followed by LPA stimulation by FLIPR analysis; format: functional, cell-based
[16] = target: Voltage-gated inwardly rectifying potassium channel KCNH2 (Homo sapiens, UniProt Q12809); assay: Inhibition of hERG
fMet-Leu-Phe receptor = target: T3, fMet-Leu-Phe receptor (Homo sapiens, UniProt P21462); assay: Inhibition of human FPR expressed in human U-937 cells by fluorescence based ligand binding assay; format: cell-based
T3 sequence (P21462 whole entry): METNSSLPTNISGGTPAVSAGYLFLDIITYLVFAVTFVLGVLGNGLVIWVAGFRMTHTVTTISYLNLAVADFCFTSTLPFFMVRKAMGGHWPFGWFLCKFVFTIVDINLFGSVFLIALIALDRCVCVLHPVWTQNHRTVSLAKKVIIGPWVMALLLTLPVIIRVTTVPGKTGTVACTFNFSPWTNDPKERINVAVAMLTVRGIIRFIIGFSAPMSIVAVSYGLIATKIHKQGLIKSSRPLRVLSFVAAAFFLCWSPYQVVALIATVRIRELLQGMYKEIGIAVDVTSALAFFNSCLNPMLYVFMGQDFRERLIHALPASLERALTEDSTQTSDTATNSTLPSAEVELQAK

T1 sequence (P09619 whole entry, the tested form may be a part): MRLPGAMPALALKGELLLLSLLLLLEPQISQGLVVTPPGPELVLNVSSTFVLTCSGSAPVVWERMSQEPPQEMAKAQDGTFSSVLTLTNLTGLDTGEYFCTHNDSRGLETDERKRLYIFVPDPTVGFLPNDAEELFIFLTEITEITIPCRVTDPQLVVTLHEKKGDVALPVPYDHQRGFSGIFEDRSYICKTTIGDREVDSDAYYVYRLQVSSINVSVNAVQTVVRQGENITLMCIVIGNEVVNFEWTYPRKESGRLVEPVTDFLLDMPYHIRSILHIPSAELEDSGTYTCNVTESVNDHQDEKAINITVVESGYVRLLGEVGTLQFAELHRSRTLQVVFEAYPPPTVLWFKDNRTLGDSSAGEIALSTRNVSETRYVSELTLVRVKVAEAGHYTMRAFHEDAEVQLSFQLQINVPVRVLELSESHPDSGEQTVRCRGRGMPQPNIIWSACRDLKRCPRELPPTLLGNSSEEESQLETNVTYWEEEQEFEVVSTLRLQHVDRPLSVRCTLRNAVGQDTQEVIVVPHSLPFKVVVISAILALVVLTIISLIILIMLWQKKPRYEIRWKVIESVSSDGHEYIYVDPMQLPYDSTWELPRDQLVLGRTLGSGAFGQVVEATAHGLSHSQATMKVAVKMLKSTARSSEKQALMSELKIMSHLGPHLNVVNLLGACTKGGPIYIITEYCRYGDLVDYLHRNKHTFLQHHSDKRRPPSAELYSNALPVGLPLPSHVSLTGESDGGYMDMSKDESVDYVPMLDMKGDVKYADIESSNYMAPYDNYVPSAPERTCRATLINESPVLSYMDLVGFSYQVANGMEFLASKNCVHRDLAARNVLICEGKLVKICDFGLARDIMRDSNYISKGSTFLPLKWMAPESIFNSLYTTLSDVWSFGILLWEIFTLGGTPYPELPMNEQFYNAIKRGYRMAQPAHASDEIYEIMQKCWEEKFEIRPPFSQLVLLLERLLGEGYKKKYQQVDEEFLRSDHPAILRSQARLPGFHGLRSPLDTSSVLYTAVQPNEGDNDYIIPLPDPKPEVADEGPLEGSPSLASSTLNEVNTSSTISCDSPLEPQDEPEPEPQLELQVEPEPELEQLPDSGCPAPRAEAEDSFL
Vascular endothelial growth factor receptor 2, sequence (P35968 whole entry, the tested form may be a part): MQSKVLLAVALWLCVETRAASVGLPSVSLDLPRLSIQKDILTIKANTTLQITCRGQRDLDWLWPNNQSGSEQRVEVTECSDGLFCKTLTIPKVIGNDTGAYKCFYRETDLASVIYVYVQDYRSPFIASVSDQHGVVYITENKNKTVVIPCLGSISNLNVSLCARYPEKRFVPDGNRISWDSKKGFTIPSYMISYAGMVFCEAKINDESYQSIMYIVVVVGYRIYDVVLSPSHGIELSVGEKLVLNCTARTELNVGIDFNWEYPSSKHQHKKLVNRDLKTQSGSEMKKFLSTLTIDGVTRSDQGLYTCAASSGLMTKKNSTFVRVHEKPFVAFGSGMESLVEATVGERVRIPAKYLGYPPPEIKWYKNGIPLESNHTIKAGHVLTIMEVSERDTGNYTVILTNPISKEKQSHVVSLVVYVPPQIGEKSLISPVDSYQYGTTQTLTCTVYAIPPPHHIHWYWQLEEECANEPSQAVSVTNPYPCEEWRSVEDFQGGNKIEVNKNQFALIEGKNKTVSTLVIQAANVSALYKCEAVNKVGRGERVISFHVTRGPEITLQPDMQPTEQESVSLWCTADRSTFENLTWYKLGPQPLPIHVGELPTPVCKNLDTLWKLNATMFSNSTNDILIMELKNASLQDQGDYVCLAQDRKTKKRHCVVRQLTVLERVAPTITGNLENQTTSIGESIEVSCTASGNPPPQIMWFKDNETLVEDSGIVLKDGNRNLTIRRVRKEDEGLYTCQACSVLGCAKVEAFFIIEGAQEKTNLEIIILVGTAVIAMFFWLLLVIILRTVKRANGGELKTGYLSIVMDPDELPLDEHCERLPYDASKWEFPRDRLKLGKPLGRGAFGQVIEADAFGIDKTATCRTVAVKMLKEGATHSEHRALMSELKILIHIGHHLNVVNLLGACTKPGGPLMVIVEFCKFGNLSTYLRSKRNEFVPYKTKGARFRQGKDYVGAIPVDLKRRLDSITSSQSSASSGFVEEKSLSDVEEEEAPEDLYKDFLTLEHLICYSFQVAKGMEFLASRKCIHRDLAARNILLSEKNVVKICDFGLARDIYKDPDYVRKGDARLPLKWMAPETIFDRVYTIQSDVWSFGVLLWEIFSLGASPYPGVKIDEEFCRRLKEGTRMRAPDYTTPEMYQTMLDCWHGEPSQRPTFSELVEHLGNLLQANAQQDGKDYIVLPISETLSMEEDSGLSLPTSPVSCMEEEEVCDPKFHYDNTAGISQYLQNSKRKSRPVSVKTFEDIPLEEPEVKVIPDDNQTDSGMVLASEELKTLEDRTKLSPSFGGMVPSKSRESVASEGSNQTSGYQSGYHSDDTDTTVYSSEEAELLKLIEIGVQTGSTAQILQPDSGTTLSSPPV
Phosphatidylinositol 4,5-bisphosphate 3-kinase catalytic subunit alpha isoform, sequence (P42336 whole entry, canonical isoform): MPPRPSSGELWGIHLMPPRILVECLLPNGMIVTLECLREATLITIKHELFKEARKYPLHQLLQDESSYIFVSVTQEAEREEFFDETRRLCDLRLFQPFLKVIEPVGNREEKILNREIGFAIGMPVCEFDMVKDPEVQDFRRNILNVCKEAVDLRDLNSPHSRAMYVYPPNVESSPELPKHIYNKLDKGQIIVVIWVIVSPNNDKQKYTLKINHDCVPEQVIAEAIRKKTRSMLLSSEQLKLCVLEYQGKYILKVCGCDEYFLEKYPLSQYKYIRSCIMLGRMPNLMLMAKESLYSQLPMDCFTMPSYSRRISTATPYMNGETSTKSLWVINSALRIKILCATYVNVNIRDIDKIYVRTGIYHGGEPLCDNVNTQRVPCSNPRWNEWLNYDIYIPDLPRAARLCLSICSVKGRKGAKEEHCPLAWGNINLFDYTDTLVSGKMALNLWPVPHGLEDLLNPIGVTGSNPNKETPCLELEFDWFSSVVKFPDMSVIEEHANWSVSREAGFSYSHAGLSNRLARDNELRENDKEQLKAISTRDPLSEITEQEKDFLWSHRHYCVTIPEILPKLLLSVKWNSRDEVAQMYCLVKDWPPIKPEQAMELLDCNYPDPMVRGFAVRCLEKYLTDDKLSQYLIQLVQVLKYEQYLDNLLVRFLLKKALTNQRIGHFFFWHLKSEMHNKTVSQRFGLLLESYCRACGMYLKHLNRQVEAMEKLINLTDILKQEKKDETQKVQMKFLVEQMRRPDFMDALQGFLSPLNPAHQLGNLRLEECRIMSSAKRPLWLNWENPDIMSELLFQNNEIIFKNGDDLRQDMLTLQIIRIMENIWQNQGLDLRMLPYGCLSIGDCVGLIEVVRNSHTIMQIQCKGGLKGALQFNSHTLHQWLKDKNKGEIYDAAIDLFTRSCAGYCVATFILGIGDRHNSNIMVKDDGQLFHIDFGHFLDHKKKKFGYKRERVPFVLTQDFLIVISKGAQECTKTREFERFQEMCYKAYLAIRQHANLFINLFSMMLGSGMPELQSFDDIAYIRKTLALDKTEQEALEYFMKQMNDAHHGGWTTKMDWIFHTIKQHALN
Sphingosine 1-phosphate receptor 2, sequence (O95136 whole entry): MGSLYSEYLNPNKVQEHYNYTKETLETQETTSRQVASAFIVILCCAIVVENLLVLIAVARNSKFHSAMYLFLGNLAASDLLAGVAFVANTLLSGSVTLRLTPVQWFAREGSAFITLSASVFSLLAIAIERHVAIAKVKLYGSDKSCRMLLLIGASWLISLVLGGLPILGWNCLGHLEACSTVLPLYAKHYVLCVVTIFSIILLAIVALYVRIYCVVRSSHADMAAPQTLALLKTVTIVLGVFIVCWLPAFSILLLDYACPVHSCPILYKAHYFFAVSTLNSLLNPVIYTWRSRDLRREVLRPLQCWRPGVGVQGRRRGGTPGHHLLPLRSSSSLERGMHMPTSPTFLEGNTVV
Voltage-gated inwardly rectifying potassium channel KCNH2, sequence (Q12809 whole entry): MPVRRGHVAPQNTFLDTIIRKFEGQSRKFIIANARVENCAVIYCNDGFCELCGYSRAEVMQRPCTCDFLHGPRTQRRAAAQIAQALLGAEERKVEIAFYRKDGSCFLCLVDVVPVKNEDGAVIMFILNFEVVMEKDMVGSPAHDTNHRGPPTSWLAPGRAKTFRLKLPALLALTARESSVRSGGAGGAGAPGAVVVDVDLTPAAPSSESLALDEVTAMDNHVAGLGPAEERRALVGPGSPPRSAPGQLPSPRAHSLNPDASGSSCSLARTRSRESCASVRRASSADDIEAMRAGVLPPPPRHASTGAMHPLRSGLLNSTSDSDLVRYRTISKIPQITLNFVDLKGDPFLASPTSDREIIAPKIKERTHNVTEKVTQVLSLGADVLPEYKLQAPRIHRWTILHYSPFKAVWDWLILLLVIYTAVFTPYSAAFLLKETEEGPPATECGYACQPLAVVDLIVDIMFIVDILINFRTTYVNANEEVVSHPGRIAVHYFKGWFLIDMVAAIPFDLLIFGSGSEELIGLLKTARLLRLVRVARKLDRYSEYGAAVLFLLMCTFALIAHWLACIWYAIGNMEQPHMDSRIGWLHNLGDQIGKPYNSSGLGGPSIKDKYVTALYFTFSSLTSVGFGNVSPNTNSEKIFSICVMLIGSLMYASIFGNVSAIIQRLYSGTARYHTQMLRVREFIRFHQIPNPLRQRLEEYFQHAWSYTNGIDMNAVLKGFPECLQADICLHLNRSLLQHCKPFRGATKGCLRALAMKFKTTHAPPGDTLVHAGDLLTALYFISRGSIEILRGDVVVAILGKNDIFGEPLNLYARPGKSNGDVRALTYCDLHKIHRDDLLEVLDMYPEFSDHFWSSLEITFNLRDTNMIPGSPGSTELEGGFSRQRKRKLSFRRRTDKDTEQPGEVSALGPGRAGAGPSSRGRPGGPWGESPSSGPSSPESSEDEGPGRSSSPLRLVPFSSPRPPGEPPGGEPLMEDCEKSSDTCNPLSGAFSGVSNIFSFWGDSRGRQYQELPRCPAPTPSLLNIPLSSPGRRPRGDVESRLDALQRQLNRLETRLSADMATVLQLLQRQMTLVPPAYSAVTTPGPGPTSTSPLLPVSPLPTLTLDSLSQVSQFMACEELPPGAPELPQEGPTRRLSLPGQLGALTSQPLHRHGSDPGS

For `COC(=O)c1ccc2c(c1)NC(=O)/C2=C(\Nc1ccc2c(c1)CCN2C(=O)CN1CCOCC1)c1ccccc1`, which AUC [1] is on record?
The AUC was 6406 h/ng/mL.

What about the pIC50 [2] of the same compound?
Its pIC50 is 6.96.

And the pIC50 [3]?
The pIC50 was 7.00.

What about the pIC50 [4] of the same compound?
Its pIC50 is 7.60.

What about the half-life [5] of the same compound?
The half-life was 4.8 h.

What about the half-life [6] of the same compound?
The half-life was 4.8 h.

With `Cc1cc(NNC(=O)Nc2cc(Cl)nc(Cl)c2)ncc1-c1cn(C)nc1C` as the compound, how does the pIC50 [7] read?
Its pIC50 is less than 5.85.

What does the source list for `CCc1nc2c(C)cc(N3CCN(CC(=O)N4CC(O)C4)CC3)cn2c1N(C)c1nc(-c2ccc(F)cc2)c(C#N)s1` [ZIRITAXESTAT]?
clearance [8]: 11.5 mL/min/kg; bioavailability [9]: 34%

Which clearance [10] does the source give for `O=c1nc(OC[C@@H]2COCCO2)cc2n1CCc1cc(C#CC3CC3)ccc1-2` [GLPG-1205] here?
The clearance was 15 mL/min/kg.

What about the bioavailability [11] of the same compound?
Its bioavailability is greater than 100%.

What about the half-life (in vivo) of the same compound?
Its half-life is 1.9 h.

With `CCCCOC(=O)NS(=O)(=O)c1sc(CC(C)C)cc1-c1ccc(Cn2c(CC)nc3c(C)cc(C)nc32)cc1` as the compound, how does the pKi [12] read?
Its pKi is 8.41.

With `O=C1NC(=O)C(Cc2ccc3nccc(-c4ccncc4)c3c2)S1` (stereo not given) as the compound, how does the pIC50 [13] read?
Its pIC50 is 8.70.

With `COc1cc2c(Oc3ccc4[nH]c(C)cc4c3F)ccnc2cc1OCC1(N)CC1` as the compound, how does the pIC50 [2] read?
The pIC50 was greater than 9.00.

With `CNC(=O)c1cc2c(Oc3ccc(NC(=S)NC(=O)Cc4ccccc4)cc3F)ccnc2cc1OC` [TAS-115] as the compound, how does the pIC50 [14] read?
Its pIC50 is 8.15.

With `Cc1noc(-c2ccc(-c3ccc(C4(C(=O)O)CC4)cc3)cc2)c1NC(=O)O[C@H](C)c1ccccc1` [BMS-986020] as the compound, how does the pEC50 [15] read?
The pEC50 was 8.17.

With `O=S(=O)(Nc1cncc(-c2ccc3nccc(-c4ccncc4)c3c2)c1)c1ccccc1F` as the compound, how does the pIC50 [13] read?
The pIC50 was 10.00.

With `COC(=O)c1ccc2c(c1)NC(=O)/C2=C(\Nc1ccc(N(C)C(=O)CN2CCN(C)CC2)cc1)c1ccccc1` [NINTEDANIB] as the compound, how does the pIC50 [16] read?
Its pIC50 is 5.59.

With `Cc1c(-c2ccccc2)nc2ccc(Br)cc2c1C(=O)NC[C@H](CC(=O)O)c1ccccc1Cl` as the compound, how does the pIC50 (fMet-Leu-Phe receptor) read?
The pIC50 was 7.49.
